From patent publication US20040023974A1, “Cyclic sulfamide derivatives and methods of use” (priority 2002, published 2004)
Counter-ions that a name gives are not always drawn.

Row | Structure (SMILES) | melting point
1 | Cc1nc2cc(CN3CC(=O)NS3(=O)=O)ccc2n1CCC(C)C [Example 12, 5-[2-Methyl-1-(3-methyl-butyl)-1H-benzoimidazol-5-ylmethyl]-1,1-dioxo-1-1,2,5-thiadiazolidin-3-one] | 70 to 75 °C
2 | O=C1CN(c2ccc(I)cc2)S(=O)(=O)N1 [Example 45, 5-(4-Iodo-phenyl)-1,1-dioxo-1,2,5-thiadiazolidin-3-one] | 191 to 193 °C
3 | Cc1cc(OCC(=O)NCc2ccccc2)ccc1N1CC(=O)NS1(=O)=O [Example 43, N-Benzyl-2-[3-methyl-4-(1,1,4-trioxo-[1,2,5]thiadiazolidin-2-yl)-phenoxy]-acetamide] | 70 to 90 °C
4 | CCOC(=O)C(Cc1ccc(CN2CC(=O)NS2(=O)=O)cc1)(NC(C)=O)C(=O)OCC [Example 10-23, 2-Acetylamino-2-[4-(1,1,4-trioxo-1,2,5-thiadiazolidin-2-ylmethyl)-benzyl]-malonic acid diethyl ester] | 197 °C
5 | COc1ccc(N2CC(=O)NS2(=O)=O)c(OC)c1.[K] | > 260 °C
6 | O=C1CN(Cc2cccc(I)c2)S(=O)(=O)N1 [Example 4, 5-(3-Iodobenzyl)-1,1-dioxo-1,2,5-thiadiazolidin-3-one] | 101 to 103 °C
7 | CCn1c(C)nc2cc(CN3CC(=O)NS3(=O)=O)ccc21 (as salt: TFA) [Example 11, 5-(1-Ethyl-2-methyl-1H-benzoimidazol-5-ylmethyl)-1,1-dioxo-1-1,2,5-thiadiazolidin-3-one] | 255 to 265 °C
8 | O=C1CN(c2ccc(CC3NC(=O)c4ccccc4NC3=O)cc2O)S(=O)(=O)N1 (centres unmarked) [Example 44, 3-[3-Hydroxy-4-(1,1,4-trioxo-[1,2,5]thiadiazolidin-2-yl)-benzyl]-3,4-dihydro-1H-benzo[1,4]diazepine-2,5-dione] | 180 °C
